*1 amine or outer side, *2 acyl side, *3 side chain or, on linkers, in order; H or OH if unused. Where a SMILES comes first, the peptide text is derived from it. Bridges are numbered along the chain shown (N, C = ends). [ ]: non-standard residue; d: D form. The star is where a group is joined. NODAGA = O=C(O)CN1CCN(CC(=O)O)CCN(C(CCC(=O)*)C(=O)O)CC1; X1 = NC(=O)Nc1ccc(CC(N[*:1])C(=O)[*:2])cc1; Phe(4-Cl) = N[CH](Cc1ccc(Cl)cc1)C(=O)O
Assays:
HEK-SST2 xenograft mice = conditions: athymic nude Foxn1^nu, mouse, in vivo, 4 h
Protocol: (§1) Unless otherwise specified, the in vivo studies were performed on athymic nude Foxn1^nu 4-6 weeks-old mice. Animals were injected in the shoulder with HEK-SST2 cells (10^7 cells/200 μL) suspended in PBS. The in vivo experiments were performed when tumors reached a volume between 100-500 mm. At the intervention, all mice were between 7 and 11 weeks old.
(§2) The specificity study was performed parallel to pharmacokinetics studies. For this reason, NODAGA-LM3 was radiolabeled with ^64Cu.
(§3) The specificity of [^64Cu]Cu-NODAGA-LM3 for SSTR2-expressing tissues was evaluated in HEK-SST2 xenograft mice through a blocking study. The mice were administered with 0.15 MBq of [^64Cu]Cu-NODAGA-LM3 co-injected with a 2000-fold excess of DOTA-LM3 as a blocking agent. The mice were sacrificed 4 hours post-injection, and the organs were collected. weighed, and counted in a gamma counter.

[1] = system: well-differentiated BP and GEP neuroendocrine tumors (NET); experiment: Human clinical trial, PET/CT imaging vs [^68Ga]Ga-DOTATOC PET/CT; type: in vivo; conditions: Subjects 1-4 and 6
Protocol: The study will be a prospective, open-label, controlled, reader-blind, single center, phase I/II PET/CT study.
The study product will be a single intravenous administration of GMP produced [^61Cu]Cu-NODAGA-LM3 followed by up to three PET/CT acquisitions. [^61Cu]Cu-NODAGA-LM3 will be administered once intravenously at an amount of 20-40 μg (or 13-26 nmol) and an activity range of 150 MBq (±25%).
The control intervention will be [^68Ga]Ga-DOTA-TOC PET/CT (150 MBq (±25%)) (including CE-CT), is acquired as standard of care and not part of the study, but scan results will be used as comparator for the diagnostic efficacy analysis (Phase II).
The diagnostic efficacy analysis (sensitivity, tumor uptake and image contrast (TBR), will be done in comparison with [^68Ga]Ga-DOTA-TOC PET/CT acquired as standard of care in a randomized, cross-over order. Readers of the scans will be blinded for imaging time point, tracers and clinical data and will follow a locked-read methodology. Number of Participants and Rationale: n=27 patients (including 22 patients for the sensitivity analysis powered for both superiority and non-inferiority design and 5 patients with negative [^68Ga]Ga-DOTATOC PET/CT and a positive NETest) […]

in vivo [2] = conditions: athymic nude Foxn1^nu, mouse, total radioactivity
Protocol: as §1, §2, §3

in vivo [3] = experiment: in vivo; set-up: species or system mice; conditions: athymic nude Foxn1^nu, mouse, iv, 13 MBq, total radioactivity
Protocol: Dynamic PET scans were acquired for 1 hour post-injection of the investigated radiopharmaceutical. The mice were euthanized using carbon dioxide at 4 hours post-injection, the bladder was mechanically emptied, and static PET scans were acquired for 30 min. PET images were obtained using the β-CUBE PET scanner system (MOLECUBES) and were decay corrected and reconstructed with the VivoQuant software version 4.0. Tomograms and helical CT scans of the whole mouse were first acquired using a NanoSPECT/CTTM scanner (Bioscan Inc.). CT images were reconstructed using CTReco (version r1.146), resulting in a pixel size of 0.2 mm. InVivoScope (version 1.43, Bioscan Inc.) software was used to generate the maximum intensity projection (MIP) of the co-registered PET/CT images presented in FIG. 10.

[4] = system: HEK-SST2 xenografted mice; experiment: Biodistribution studies; type: in vivo; conditions: 4 hours post-injection, 1 MBq i.v.
Protocol: The dose of the administered radiopharmaceutical was 1 MBq ([…]) diluted to 100 μL with saline solution. The mice were euthanized at 4 hours post-injection, and the organs of interest were collected, rinsed, blotted, weighed, and analyzed in a gamma counter. The results were expressed as the percentage of injected activity per gram of tissue (% IA/g) and reported as mean±standard deviation in Table 32.

[5] = type: physicochemical; conditions: pH 7.4
Protocol: The mixture was vortexed for 30 min and then centrifuged at 3000 rpm to achieve phase separation. Aliquots from each phase were collected and measured in a gamma counter. The distribution coefficient was calculated as the average logarithmic values of the ratio between the radioactivity in the organic and the PBS phase.

Compound: CC(O)C1NC(=O)C(CCCCN)NC(=O)C(Cc2ccc(NC(N)=O)cc2)NC(=O)C(Cc2ccc(O)cc2)NC(=O)C(NC(=O)C(Cc2ccc(Cl)cc2)NC(=O)CCC(C(=O)O)N2CCN(CC(=O)O)CCN(CC(=O)O)CC2)CSSCC(C(=O)NC(Cc2ccc(O)cc2)C(N)=O)NC1=O (stereo not shown) [[^61Cu]Cu-NODAGA-LM3, metal not drawn] ({NODAGA}-[Phe(4-Cl)]CY[X1]KTCY-NH2; disulfide 2-7; configuration not given here)
- Uptake Blood (HEK-SST2 xenograft mice): 0.10 ± 0.02 % IA/g
- Uptake Heart (HEK-SST2 xenograft mice): 0.20 ± 0.01 % IA/g
- Uptake Liver (HEK-SST2 xenograft mice): 0.90 ± 0.20 % IA/g
- Uptake Muscle (HEK-SST2 xenograft mice): 0.02 ± 0.01 % IA/g
- physiological uptake in the liver, spleen, and GI tract [1]: very low physiological uptake
- tissue uptake at 4 h (in vivo [2]; 0.15 MBq, Uptake Bone): 0.39 ± 0.07 %ID/g
- tissue uptake at 4 h (in vivo [2]; 0.15 MBq, Uptake Pancreas): 0.55 ± 0.1 %ID/g
- tissue uptake at 4 h (in vivo [2]; 0.15 MBq, Uptake Stomach): 1.31 ± 0.55 %ID/g
- tissue uptake at 4 h (in vivo [2]; 0.15 MBq, Uptake Tumor): 37.9 ± 3.43 %ID/g
- tissue uptake at 4 h (in vivo [2]; Uptake Blood): 0.11 ± 0.05 %ID/g
- tissue uptake at 4 h (in vivo [2]; Uptake Bone): 0.01 ± 0.01 %ID/g
- tissue uptake at 4 h (in vivo [2]; Uptake Heart): 0.14 ± 0.07 %ID/g
- tissue uptake at 4 h (in vivo [2]; Uptake Intestine): 0.46 ± 0.01 %ID/g
- tissue uptake at 4 h (in vivo [2]; Uptake Kidney): 3.52 ± 0.93 %ID/g
- tissue uptake at 4 h (in vivo [2]; Uptake Liver): 0.96 ± 0.14 %ID/g
- tissue uptake at 4 h (in vivo [2]; Uptake Lung): 0.67 ± 0.25 %ID/g
- tissue uptake at 4 h (in vivo [2]; Uptake Muscle): 0.03 ± 0.01 %ID/g
- tissue uptake at 4 h (in vivo [2]; Uptake Pancreas): 0.12 ± 0.03 %ID/g
- tissue uptake at 4 h (in vivo [2]; Uptake Spleen): 0.21 ± 0.06 %ID/g
- tissue uptake at 4 h (in vivo [2]; Uptake Stomach): 0.43 ± 0.14 %ID/g
- tissue uptake at 4 h (in vivo [2]; Uptake Tumor): 0.52 ± 0.18 %ID/g
- tissue uptake at 4 h (in vivo [2]; female, iv, 0.15 MBq, Uptake Intestine): 0.46 ± 0.04 %ID/g
- tissue uptake at 4 h (in vivo [2]; female, iv, 0.15 MBq, Uptake Kidney): 4.41 ± 0.74 %ID/g
- tissue uptake at 4 h (in vivo [2]; female, iv, 0.15 MBq, Uptake Lung): 0.6 ± 0.17 %ID/g
- tissue uptake at 4 h (in vivo [2]; female, iv, 0.15 MBq, Uptake Spleen): 0.21 ± 0.1 %ID/g
- tissue to tissue ratio (in vivo [3]): 4
- Uptake [% IA/g] Kidneys [4]: 3.87±0.51 % IA/g
- logD [5]: -2.95 ± 0.08

— patent US20260151517A1, “SOMATOSTATIN RECEPTOR-TARGETING RADIOPHARMACEUTICALS AND USES THEREOF” (Nuclidium AG, priority 2024, published 2026)
